The structures appear in SMILES notation.

Compound `Cn1cc(C(=O)O)c(=O)c2c3cc(N4CCN(c5ccc(F)c(Cl)c5)CC4)c(Cl)c(F)c3ncc21` gave a melting point above 260 °C.

Turning to `CCCCC(O)CN1N=CCCC1c1ccc(Cl)c(Cl)c1` (stereo not drawn), the melting point lay within 80 to 81 °C.

Compound `CCN1c2ncc(CCc3cccnc3)cc2C(=O)N(C)c2cccnc21` gave a melting point of 79 to 80 °C.

For the compound `Cc1ccc(COc2ccc(CC(NC(=O)c3cc4cc(-c5ccc(Cl)cc5)ccc4s3)C(=O)O)cc2)cc1` (stereo not drawn), the melting point stood at 208 °C.

On to `COC(=O)C1C(=O)N(C)C(=O)c2ccc(Cl)cc21` (stereo not drawn), for which the melting point fell in the range of 166 to 167 °C.

Compound `CCc1nc2c(C)cc(C)nc2n1Cc1ccc(NCC2CCNCC2)cc1` yielded a melting point of 165 to 168 °C.

`CC(C)(C)NS(=O)(=O)Cc1cc(Br)c(NC(=O)C(F)(F)F)c(Br)c1` gave a melting point of 166 to 167 °C.

Compound `CSC(Nc1cc(C(F)(F)F)cc(C(F)(F)F)c1)=C(C#N)S(=O)(=O)C(C)C` showed a melting point of 130 to 133 °C.

Consider `COC(=O)CCc1cc(C(C)(C)C)c(OP(Cl)c2ccccc2)c(C(C)(C)C)c1` (stereo not drawn), for which the melting point was 86 to 88 °C.

`On1nc(Br)c(Cl)c1Br`: the melting point stood at 160 °C.

The compound `CCCCCCCCCCCCS(=O)(=O)Nc1ccccc1C(=O)Nc1cc(Cl)c2c(c1O)CN(C)C(=O)N2` yielded a melting point of 183 to 187 °C.

`CNC(=O)c1ccc(N2CCN(c3ccncc3)CC2)cc1` returned a melting point of 239 to 242 °C.

Regarding `N#Cc1ccc(-c2ccc(OCCCCCC(=O)NO)cc2)cc1`, the melting point stood at 129 °C.

The compound `COc1cc2ncnc(Nc3cccc(Br)c3)c2cc1OCC1CO1` (stereo not drawn) yielded a melting point of 230 to 245 °C.

Turning to `Cc1ccccc1C(CCC(=O)O)Oc1cc(OCc2ccsc2)ccc1C(=O)C(=O)O` (racemic), the melting point is 173 to 175 °C.

For `COc1cccc2c(=O)c3cc(F)ccc3oc12`, the melting point is 170 to 172 °C.

The compound `CC(=O)NCC1CN(c2ccc(N3CCN(c4nc5cc([N+](=O)[O-])ccc5o4)CC3)c(F)c2)C(=O)O1` (stereo not drawn) showed a melting point of 224 to 225 °C.

On to `O=C(CNC(=O)c1ccc([N+](=O)[O-])c(F)c1)OCC(Cl)(Cl)Cl`, for which the melting point is 142 to 144 °C.

Compound `[N-]=[N+]=C1C(=O)Nc2cccc(Cl)c21` registered a melting point of 214 to 215 °C.

`CC(C)c1cccc(C(C)C)c1NC(=O)C1CCCC(Cc2ccccn2)(c2ccccc2)C1=O` (stereo not drawn) showed a melting point of 164 to 166 °C.

For `S=C1N[C@@H](c2ccccc2)[C@H](c2ccccc2)N1` (relative stereo), the melting point fell in the range of 212 to 214 °C.

Regarding `CCCCCCCCn1c2cc(I)ccc2c2ccc(I)cc21`, the melting point was in the range of 82 to 84 °C.

Regarding `COCc1cc(Oc2ccc3c(C(=O)OC)cccc3c2)ncn1`, the melting point lay in the range of 87 to 88 °C.

As to `S=c1n(CNCc2ccc(Cl)cc2)nc(-c2ccncc2)n1-c1ccccc1`, the melting point lay within 222 to 223 °C.

With `CC1(C)CC(OC(=O)c2ccccc2)CC(C)(C)N1OP(=O)(c1ccccc1)c1ccccc1`, the melting point was 169 to 173 °C.

For `COC(=O)C(=O)c1ccc(OCCOc2ccc3ccccc3c2)c(Cl)c1`, the melting point lay in the range of 133 to 134 °C.

On to `COc1ccc2c(c1)c(Cc1nc(-c3ccc4ccccc4c3)cs1)c(C)n2C(=O)c1ccc(Cl)cc1`, for which the melting point lay in the range of 131 to 133 °C.

For `COC(=O)c1c(Cl)cccc1S(N)(=O)=O`, the melting point lay in the range of 144 to 149 °C.

Compound `CCOC(=O)NC(=N)NCCSCc1[nH]cnc1C` had a melting point of 196 to 197 °C.

Turning to `Cc1ccc(C(=O)NC(=O)Nc2ccc3c(c2)NC(=O)/C3=C\c2ccc[nH]2)cc1`, the melting point lay in the range of 276 to 281 °C.

For the compound `Nc1ncccc1OCc1cccc(Cl)c1F`, the melting point was 98 to 100 °C.

Compound `CC(=O)N1CS(=O)c2c1cc(C)cc2[N+](=O)[O-]` (stereo not drawn) gave a melting point of 141 °C.

`COc1ccc2cc(C(C)COS(N)(=O)=O)ccc2c1` (stereo not drawn) showed a melting point of 112 to 115 °C.

As for `CCCCC(CC)CNCCOc1ccc2ccccc2c1` (stereo not drawn), the melting point came out at 92 °C.

Regarding `Cc1cc(Oc2ccc(-c3ccn(CC4CC4)c(=O)c3C#N)cc2F)cc(C)n1`, the melting point was determined as 201 °C.

Turning to `COc1ccc(C2CNCCc3c2cc(OC)c(OC)c3C)cc1` (stereo not drawn), the melting point fell in the range of 100 to 111 °C.

`CCCCCC(=O)OCC(=O)C1C(C)CC2C3=C(C(O)CC21C)C1(C)C=CC(=O)C=C1C(F)C3` (stereo not drawn) registered a melting point of 155 °C.

With `COc1ccc(CN2CCc3cc(O)c(OC)cc3C2)cc1`, the melting point is 162 to 163 °C.

As to `CSc1nc(N)c2ncn(COCCO)c2n1`, the melting point was in the range of 174 to 176 °C.

`CC[C@H](C)[C@@H](CO)NS(=O)(=O)c1ccc(I)cc1`: the melting point lay within 118 to 120 °C.

In turn, `C[C@H]1CN(c2c(F)cc3c(=O)c(C(=O)O)cn(C4CC4)c3c2Br)C[C@H]1N` (relative stereo) showed a melting point of 186 to 190 °C.

With `Oc1ccc2cc(Br)cc(F)c2c1`, the melting point was 124 to 126 °C.

For `O=C1N=NC(=O)c2c1[nH]c1cc(Cl)cc(Cl)c21`, the melting point is above 300 °C.

As to `Cc1c(-c2ccc(F)cc2)nnn1CCC#Cc1ccccn1`, the melting point was 130 to 131 °C.

For the compound `CCN1CCN(Cc2ccc(-c3cc4c(NCc5ccc(OC)nc5)ncnc4[nH]3)cc2)CC1`, the melting point amounted to 305 °C.

With `CCOC(=O)N(C(=O)N1CC(c2ccc(Cl)cn2)C(c2ccc(F)cc2)=N1)c1ccc(OC(F)(F)F)cc1` (stereo not drawn), the melting point is 160 to 161 °C.

For `CCCCCc1noc(-c2ccc(OCCC3CCN(c4ccc(C)nn4)CC3)cc2)n1`, the melting point was 111 °C.

`CC(=O)c1ccc(OCc2cccc(N)c2)cc1O` gave a melting point of 153 to 154 °C.

The compound `Cc1nc2ccc(S(=O)(=O)n3c(COC(C)(C)C(=O)O)cc4cc(Cl)ccc43)cc2s1` registered a melting point of 172 to 174 °C.

`CC(C)(C)OC(=O)N[C@H]1CC[C@H](CN2CCN(c3cccc4c3CCC4)CC2)CC1`: the melting point was in the range of 131 to 134 °C.

`CNC(=O)N1CC(Oc2cccc(C(F)(F)F)c2)C1` came in with a melting point of 145 to 147 °C.

On to `CCCCn1cc(CCN(C)C)c2c(OCc3ccccc3)cc(F)cc21`, for which the melting point lay within 86 to 89 °C.

In turn, `COC(=O)CCc1nc(I)ccc1O` returned a melting point of 145 to 148 °C.

Compound `O=C1NC(=O)C2(CCCN3CCN(c4ccc(Cl)cc4)CC3)C=CC=CC12` (stereo not drawn) showed a melting point of 120 °C.

Regarding `Nc1ccc2nc(N3CCOCC3)nn2c1`, the melting point is 165 °C.

Compound `O=C1c2ccccc2C(=O)N1Cc1noc(-c2ncn3c2[C@@H]2CCN2C(=O)c2c-3ccc(F)c2Cl)n1` returned a melting point of 292 to 294 °C.

`CCOC(=O)c1nc(/C=C/c2ccccc2)ns1` displayed a melting point of 79 to 80 °C.

`COCCc1nc2c(N)nc3ccccc3c2n1CCOCCN(C)C(=O)Nc1ccccc1` displayed a melting point of 185 to 186 °C.

In the case of `COc1cc(Oc2cccc(C(F)(F)F)c2)nc(C(=O)NN=CCC#N)c1`, the melting point was 98 to 100 °C.

With `O=[N+]([O-])c1ccc(O)c(Cl)c1Cl`, the melting point is 148 to 150 °C.

`O=C1Nc2cnncc2C(=O)C1c1c(F)cc(F)cc1F` (stereo not drawn) registered a melting point above 300 °C.

Take `CC(C)(C)OC(=O)CN1C(=O)[C@@H](N)[C@H](c2ccccc2)Sc2ccccc21` (relative stereo): the melting point was in the range of 172 to 174 °C.

Compound `COC(=O)c1cc(C=O)ccc1C` had a melting point of 60 to 61 °C.

`Cc1c(NC(=O)c2ccc(Oc3ccccc3)cc2)ccc2cc(CN3CCCC3)cnc12` yielded a melting point of 161 to 162 °C.

`CCOC(=O)Cn1c(CC)nc2c(OCc3ccc(OC)cc3)cccc21` came in with a melting point of 112 °C.

Compound `CC(C)Oc1ccccc1C(=O)NC(=O)NC1CN2CCC1CC2` (stereo not drawn) returned a melting point of 171 to 175 °C.

Take `Cc1cc(F)ccc1-c1ccc(S(=O)(=O)N2c3ccccc3CC2C(=O)NCCOc2ccc(C(=O)O)cc2)cc1` (stereo not drawn): the melting point worked out at 96 °C.

Take `CC(C)N(C)c1ncc(C2CC2(C)C(N)=O)cc1Cl` (stereo not drawn): the melting point was in the range of 86 to 87 °C.

Compound `CN(C)C(=O)n1c(CN2CCN(c3ccccn3)CC2)nc2ccccc21` returned a melting point of 174 to 176 °C.

`CN(CCO)Cc1cc(C(=O)c2ccc(Cl)cc2)cc(C(C)(C)C)c1O` yielded a melting point of 126 to 127 °C.

As to `CC1CC(=O)NN=C1c1ccc2c(c1)OCC(=O)N2` (stereo not drawn), the melting point was above 300 °C.

With `COc1ccc(CNc2c(Cl)cnn(C)c2=O)cc1`, the melting point was in the range of 94 to 96 °C.

Regarding `CCCn1nc2c(N)nc3ccccc3c2c1CCCCS(=O)(=O)NC`, the melting point lay in the range of 166 to 169 °C.

For the compound `Clc1cc(-c2ccc3nnn(Cc4ccc5ncccc5c4)c3n2)ccn1`, the melting point was 197 to 199 °C.

`COC(=O)c1cscc1Nc1ccc(F)cc1[N+](=O)[O-]` displayed a melting point of 164 °C.

On to `O=C(NCC1CCCC1)c1ccc2c(Br)n[nH]c2c1`, for which the melting point was 119 to 125 °C.

On to `CCOC(=O)C1CCN(c2nc(-c3ccc(Cl)cc3)c(CCCOc3ccccc3OC)o2)CC1`, for which the melting point fell in the range of 80 to 81 °C.

Regarding `O=c1c2c(nc3c(OCc4ccccc4)cccn13)CCC2`, the melting point is 150 to 152 °C.

As to `CC(=O)Nc1nc2ccc(S(=O)(=O)n3c(CCCC(=O)O)cc4cc(C(F)(F)F)ccc43)cc2s1`, the melting point is above 250 °C.

Consider `CCCCCCCCCCN(CCC12CC3CC(CC(C3)C1)C2)C(=O)NCCCc1ccncc1`, for which the melting point is 75 to 76 °C.

For the compound `COc1cc(Cc2cnc(N)nc2N)c2c(c1OC)OC(C1CC1)C=C2` (stereo not drawn), the melting point was found to be 229 °C.

In turn, `O=C(O)C(=O)c1ccc(OCCOC2CCCCCCC2)cc1` gave a melting point of 64 to 65 °C.

`Cc1nc(C)c(C(=O)NC(C)c2ccccc2)cc1CCl` (stereo not drawn) registered a melting point of 165 °C.

`COc1ccc(C(C)=O)c2c1CCN2C(C)=O` came in with a melting point of 88 to 89 °C.

As for `CCNCC1CCN(c2c(F)cc3c(=O)c(C(=O)O)cn(C4CC4C)c3c2F)C1` (stereo not drawn), the melting point fell in the range of 225 to 228 °C.

As to `COC(=O)c1ccc(OCC(C)=O)c(C(=O)OC)c1`, the melting point fell in the range of 115 to 116 °C.

`[N-]=[N+]=C(c1ccccc1)c1ccc(COCCNC(=O)Nc2ccccc2)cc1`: the melting point was in the range of 111 to 115 °C.

In the case of `COC(=O)c1ccc(-c2cc(C)n(Cc3ccccc3)n2)o1`, the melting point lay in the range of 65 to 66 °C.
